test system: rhythmic bladder contractions induced by substance P; experiment: Inhibitory effect on the rhythmic bladder contractions induced by substance P in anesthetized rats; format: in vivo, rat; conditions: time during which frequency of rhythmic contraction was completely inhibited, 0.25 mg/kg of the compound, substance P infusion
Method: Inhibitory effect on the rhythmic bladder contractions induced by substance P in anesthetized rats
For the experiments, Sprague-Dawley female rats (9 to 12 weeks old) weighing between 200 to 300 g were used. After urethane anesthetization (subcutaneously administered with a dose of 1.2 g/kg), cannulae were placed in both right and left femoral veins. One intravenous catheter was used for administration of compounds, and the other was for the substance P (0.33 μg/kg/min) infusion. We also cannulated into ureter to pass urine. Polyethylene catheters were inserted into carotid artery for continuous monitoring of arterial blood pressure and heart rate. For continuous infusion, transurethral bladder catheter was inserted into the bladder through the urethra and tied in place by a ligature around the urethral orifice. One end of the catheter was attached to a pressure transducer in order to measure intravesical pressure. The other end of the catheter was used for infusion of saline into the bladder. After stabilization of blood pressure and heart rate and after the bladder was emptied, cystometry was performed by filling the bladder slowly with about 0.6 ml of saline. After about 10 minutes, intravenous infusion of substance P (0.33 μg/kg/min) was started for stabilization of the micturition reflex. Compounds were administered after stable rhythmic bladder contraction was obtained over 15 minutes. All compounds were dissolved or suspended in saline containing 0.5% Tween 80 for intravenous administration (0.1 ml/kg).
A 100% inhibition time (minute) of the selected compounds of the present invention is shown in the following Table 65 with a rank of A, B or C. These ranges are as mentioned below. A≧20>B≧10>C (minute)

| Compound | 100% inhibition time range |
| --- | --- |
| COc1ccc(-c2nc(-c3ccc(Cl)s3)c(CC(=O)O)s2)cc1 [Preparation Example 570] | A (A≧20>B≧10>C (minute)) |
| CCc1[nH]c(-c2cc(Cl)sc2S(=O)(=O)O)nc1-c1cccnc1.Cl.Cl [Preparation example 143, 2-(5-Chloro-2-sulfothiophen-3-yl)-5-ethyl-4-(3-pyridyl)-imidazole dihydrochloride] | C (A≧20>B≧10>C (minute)) |
| Cn1c(-c2nc(CC(=O)O)c(-c3ccc(Cl)s3)o2)cc2ccccc21 [Preparation Example 472] | A (A≧20>B≧10>C (minute)) |
| Cl.O=C(O)Cc1nc(-c2ccc(F)cc2)oc1-c1cccnc1 [Preparation Example 484, 2-(4-fluoro-phenyl)-5-(3-pyridyl)oxazol-4-yl acetic acid hydrochloride] | B (A≧20>B≧10>C (minute)) |
| N#CCCc1nc(-c2ccc(F)cc2)[nH]c1-c1ccsc1 [Preparation example 46] | B (A≧20>B≧10>C (minute)) |
| COc1ccc(-c2nc(CC(=O)O)c(-c3ccc(Cl)s3)o2)cn1 [Preparation Example 368] | B (A≧20>B≧10>C (minute)) |
| COc1ccc(-c2nc(CC(=O)O)c(-c3ccc(Cl)c(F)c3)o2)cc1 [Preparation Example 525] | A (A≧20>B≧10>C (minute)) |
| CS(=O)(=O)Nc1ccccc1-c1oc(-c2ccc(F)cc2)nc1CC(=O)O [Preparation Example 238] | C (A≧20>B≧10>C (minute)) |
| O=C(O)Cc1nc(-c2cc3ncccc3s2)oc1-c1ccc(Cl)s1 [Preparation Example 470] | B (A≧20>B≧10>C (minute)) |
| O=C(O)Cc1sc(-c2ccc(F)cc2)nc1-c1ccc(Cl)cc1 [Preparation Example 573] | B (A≧20>B≧10>C (minute)) |
| CSc1ccc(-c2nc(CC(=O)O)c(-c3ccsc3)o2)cc1 [Preparation Example 440] | C (A≧20>B≧10>C (minute)) |
| O=C(O)Cc1[nH]c(-c2cc3ccccc3s2)nc1-c1ccc(Cl)s1 [Preparation Example 351] | C (A≧20>B≧10>C (minute)) |
| Cl.Cl.N#CCCc1[nH]c(-c2ccc(F)cc2)nc1-c1cccnc1 [Preparation example 43, 5-(2-cyanoethyl)-2-(4-fluorophenyl)-4-(3-pyridyl)-imidazole dihydrochloride] | C (A≧20>B≧10>C (minute)) |
| O=C(O)Cc1nc(-c2ccc(F)cc2)oc1-c1ccccc1F [Preparation Example 162] | C (A≧20>B≧10>C (minute)) |
| O=C(O)Cc1nc(-c2ccc(F)cc2)oc1-c1ccccc1 [Preparation Example 153] | B (A≧20>B≧10>C (minute)) |
| O=C(O)Cc1nc(-c2ccc(F)cc2)oc1-c1cc(Cl)ccc1O [Preparation Example 242] | C (A≧20>B≧10>C (minute)) |
| CN(C)c1ncc(-c2nc(-c3ccc(Cl)cc3)c(CC(=O)O)o2)cn1 [Preparation Example 513] | C (A≧20>B≧10>C (minute)) |
| O=C(O)Cc1nc(-c2ccc(F)cc2)oc1-c1cc2ccccc2o1 [Preparation Example 254] | C (A≧20>B≧10>C (minute)) |
| COc1ccc(-c2nc(-c3ccc(Cl)c(F)c3)c(CC(=O)O)s2)cc1 [Preparation Example 582] | A (A≧20>B≧10>C (minute)) |
| O=C(O)Cc1nc(-c2ccc3ncccc3c2)oc1-c1ccsc1 [Preparation Example 442] | C (A≧20>B≧10>C (minute)) |
| Cc1ccc(-c2nc(CC(=O)O)c(-c3ccsc3)o2)cc1 [Preparation Example 198] | C (A≧20>B≧10>C (minute)) |
| Cc1cc(-c2nc(CC(=O)O)c(-c3ccc(Cl)s3)o2)sc1C [Preparation Example 467] | A (A≧20>B≧10>C (minute)) |
| CC(C(=O)O)c1nc(-c2ccc(F)cc2)oc1-c1ccsc1 (stereo not drawn) [Preparation Example 613] | C (A≧20>B≧10>C (minute)) |
| CN(C)c1ccc(-c2nc(CC(=O)O)c(-c3ccc(Cl)s3)s2)cn1 [Preparation Example 608] | B (A≧20>B≧10>C (minute)) |
